Data taken from US6358885B1, “Substituted phenylheterocyclic herbicides” (Mississippi State University, priority 1992, dated 2002).

How the values were obtained:
cocklebur = assay: Test B preemergence/postemergence greenhouse plant response rating 0 to 10; assay type: in vivo, Xanthium pensylvanicum; conditions: 0 to 10 scale
Outline: (§1)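 Postemergence treatment of plants two to eighteen cm tall ran alongside preemergence treatment of planted seed, each using compound in a non-phytotoxic solvent.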

soybean [1] = assay: Test C preemergence/postemergence greenhouse plant response rating 0 to 100; assay type: in vivo, Glycine max; conditions: for Plant response rating, Soybean: 125 g/ha, 0 to 100 scale
Outline: (§2)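 Compounds in non-phytotoxic solvent went onto sandy loam before emergence (seeded one day earlier) or onto plants at the one-to-four leaf stage. Duck salad was treated via flood water (~2.5 cm, maintained) over silt loam.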

lambsquarters = assay: Test B preemergence/postemergence greenhouse plant response rating 0 to 10; assay type: in vivo, Chenopodium album; conditions: 0 to 10 scale
Outline: as §1

barley [2] = assay: as above; assay type: in vivo, Hordeum vulgare; conditions: 0 to 10 scale
Outline: as §1

blackgrass = assay: Test C preemergence/postemergence greenhouse plant response rating 0 to 100; assay type: in vivo, Alopecurus myosuroides; conditions: for Plant response rating, Blackgrass: 125 g/ha, 0 to 100 scale
Outline: as §2

soybean [3] = assay: Test B preemergence/postemergence greenhouse plant response rating 0 to 10; assay type: in vivo, Glycine max; conditions: 0 to 10 scale
Outline: as §1

cheatgrass = assay: as above; assay type: in vivo, Bromus secalinus; conditions: 0 to 10 scale
Outline: as §1

giant foxtail [4] = assay: as above; assay type: in vivo, Setaria faberii; conditions: 0 to 10 scale
Outline: as §1

velvetleaf = assay: as above; assay type: in vivo, Abutilon theophrasti; conditions: 0 to 10 scale
Outline: as §1

morningglory [5] = assay: Test C preemergence/postemergence greenhouse plant response rating 0 to 100; assay type: in vivo, Ipomoea hederacea; conditions: for Plant response rating, Morningglory: 125 g/ha, 0 to 100 scale
Outline: as §2

sorghum = assay: as above; assay type: in vivo, Sorghum bicolor; conditions: for Plant response rating, Sorghum: 125 g/ha, 0 to 100 scale
Outline: as §2

morningglory [6] = assay: Test B preemergence/postemergence greenhouse plant response rating 0 to 10; assay type: in vivo, Ipomoea hederacea; conditions: 0 to 10 scale
Outline: as §1

rice = assay: Test C flood test plant response rating 0 to 100; assay type: in vivo, Oryza sativa
Outline: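 Compounds in non-phytotoxic solvent applied preemergence to sandy loam one day after planting, postemergence at the 1–4 leaf stage, or to ~2.5 cm floodwater over silt loam.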

rape = assay: Test C preemergence/postemergence greenhouse plant response rating 0 to 100; assay type: in vivo, Brassica napus; conditions: for Plant response rating, Rape: 125 g/ha, 0 to 100 scale
Outline: as §2

chickweed = assay: as above; assay type: in vivo, Stellaria media; conditions: PREEMERGENCE
Outline: as §2

giant foxtail [7] = assay: as above; assay type: in vivo, Setaria faberii; conditions: for Plant response rating, Giant foxtail: 125 g/ha, 0 to 100 scale
Outline: as §2

barley [8] = assay: as above; assay type: in vivo, Hordeum vulgare; conditions: for Plant response rating Barley Igri: 125 g/ha, 0 to 100 scale
Outline: as §2

bedstraw = assay: Test B preemergence/postemergence greenhouse plant response rating 0 to 10; assay type: in vivo, Galium aparine; conditions: 0 to 10 scale
Outline: as §1

Fc1cc(Cl)ccc1-c1nn2c(c1Br)CCCC2 [Compound 52]
20: Plant response rating (0 to 100), Blackgrass (blackgrass; Rate 8 g/ha, POSTEMERGENCE) | Plant response rating (0 to 100), Morningglory (morningglory [5]; POSTEMERGENCE, Rate 2 g/ha) | Plant response rating (0 to 100), Rice Japonica (rice; Rate 8 g/ha, under POSTEMERGENCE head (flood test species)) | Plant response rating, Chickweed (chickweed; 125 g/ha, 0 to 100 scale) | Plant response rating (0 to 100), Giant foxtail (giant foxtail [7]; POSTEMERGENCE, Rate 2 g/ha) | Plant response rating (0 to 100), Barley Igri (barley [8]; Rate 8 g/ha, POSTEMERGENCE)
0: Plant response rating, Cocklebur (cocklebur; PREEMERGENCE, Rate 50 g/ha) | Plant response rating, Cocklebur (cocklebur; Rate 200 g/ha, PREEMERGENCE) | Plant response rating, Soybean (soybean [1]; PREEMERGENCE) | Plant response rating (0 to 100), Soybean (soybean [1]; PREEMERGENCE, Rate 2 g/ha) | Plant response rating (0 to 100), Soybean (soybean [1]; Rate 8 g/ha, PREEMERGENCE) | Plant response rating (0 to 100), Soybean (soybean [1]; Rate 31 g/ha, PREEMERGENCE) | Plant response rating (0 to 100), Blackgrass (blackgrass; PREEMERGENCE, Rate 2 g/ha) | Plant response rating (0 to 100), Blackgrass (blackgrass; Rate 8 g/ha, PREEMERGENCE) | Plant response rating (0 to 100), Blackgrass (blackgrass; Rate 31 g/ha, PREEMERGENCE) | Plant response rating, Soybean (soybean [3]; PREEMERGENCE, Rate 50 g/ha) | Plant response rating, Soybean (soybean [3]; Rate 200 g/ha, PREEMERGENCE) | Plant response rating, Morningglory (morningglory [5]; PREEMERGENCE) | Plant response rating (0 to 100), Morningglory (morningglory [5]; PREEMERGENCE, Rate 2 g/ha) | Plant response rating (0 to 100), Morningglory (morningglory [5]; Rate 8 g/ha, PREEMERGENCE) | Plant response rating (0 to 100), Morningglory (morningglory [5]; Rate 31 g/ha, PREEMERGENCE) | Plant response rating (0 to 100), Sorghum (sorghum; PREEMERGENCE, Rate 2 g/ha) | Plant response rating (0 to 100), Sorghum (sorghum; Rate 8 g/ha, PREEMERGENCE) | Plant response rating (0 to 100), Sorghum (sorghum; Rate 31 g/ha, PREEMERGENCE) | Plant response rating, Morningglory (morningglory [6]; PREEMERGENCE, Rate 50 g/ha) | Plant response rating (0 to 100), Rice Japonica (rice; POSTEMERGENCE section, flood test, Rate 2 g/ha) | Plant response rating (0 to 100), Rape (rape; PREEMERGENCE, Rate 2 g/ha) | Plant response rating (0 to 100), Rape (rape; Rate 8 g/ha, PREEMERGENCE) | Plant response rating (0 to 100), Chickweed (chickweed; Rate 2 g/ha) | Plant response rating (0 to 100), Chickweed (chickweed; Rate 8 g/ha) | Plant response rating (0 to 100), Chickweed (chickweed; Rate 31 g/ha) | Plant response rating (0 to 100), Giant foxtail (giant foxtail [7]; PREEMERGENCE, Rate 2 g/ha) | Plant response rating (0 to 100), Barley Igri (barley [8]; PREEMERGENCE, Rate 2 g/ha) | Plant response rating (0 to 100), Barley Igri (barley [8]; Rate 8 g/ha, PREEMERGENCE) | Plant response rating (0 to 100), Barley Igri (barley [8]; Rate 31 g/ha, PREEMERGENCE)
9: Plant response rating, Lambsquarter (lambsquarters; POSTEMERGENCE, Rate 50 g/ha) | Plant response rating, Giant foxtail (giant foxtail [4]; PREEMERGENCE, Rate 50 g/ha) | Plant response rating, Velvetleaf (velvetleaf; POSTEMERGENCE, Rate 50 g/ha) | Plant response rating, Morningglory (morningglory [6]; POSTEMERGENCE, Rate 50 g/ha) | Plant response rating, Morningglory (morningglory [6]; Rate 200 g/ha, POSTEMERGENCE)
6: Plant response rating, Cocklebur (cocklebur; POSTEMERGENCE, Rate 50 g/ha) | Plant response rating, Cheatgrass (cheatgrass; PREEMERGENCE, Rate 50 g/ha)
50: Plant response rating, Blackgrass (blackgrass; PREEMERGENCE) | Plant response rating (0 to 100), Morningglory (morningglory [5]; Rate 31 g/ha, POSTEMERGENCE) | Plant response rating (0 to 100), Sorghum (sorghum; Rate 31 g/ha, POSTEMERGENCE) | Plant response rating (0 to 100), Giant foxtail (giant foxtail [7]; Rate 31 g/ha, POSTEMERGENCE) | Plant response rating Barley Igri (barley [8]; POSTEMERGENCE)
2: Plant response rating, Barley (barley [2]; PREEMERGENCE, Rate 50 g/ha) | Plant response rating, Morningglory (morningglory [6]; Rate 200 g/ha, PREEMERGENCE)
40: Plant response rating (0 to 100), Soybean (soybean [1]; Rate 31 g/ha, POSTEMERGENCE) | Plant response rating (0 to 100), Blackgrass (blackgrass; Rate 31 g/ha, POSTEMERGENCE) | Plant response rating (0 to 100), Sorghum (sorghum; Rate 8 g/ha, POSTEMERGENCE) | Plant response rating (0 to 100), Rape (rape; Rate 8 g/ha, POSTEMERGENCE) | Plant response rating (0 to 100), Giant foxtail (giant foxtail [7]; Rate 8 g/ha, POSTEMERGENCE) | Plant response rating (0 to 100), Barley Igri (barley [8]; Rate 31 g/ha, POSTEMERGENCE)
70: Plant response rating, Soybean (soybean [1]; POSTEMERGENCE) | Plant response rating (0 to 100), Rape (rape; Rate 31 g/ha, POSTEMERGENCE)
45: Plant response rating (0 to 100), Rice Japonica (rice; Rate 31 g/ha, under POSTEMERGENCE head (flood test species))
90: Plant response rating, Giant foxtail (giant foxtail [7]; PREEMERGENCE)
30: Plant response rating (0 to 100), Soybean (soybean [1]; Rate 8 g/ha, POSTEMERGENCE) | Plant response rating (0 to 100), Morningglory (morningglory [5]; Rate 8 g/ha, POSTEMERGENCE) | Plant response rating (0 to 100), Sorghum (sorghum; POSTEMERGENCE, Rate 2 g/ha) | Plant response rating (0 to 100), Giant foxtail (giant foxtail [7]; Rate 31 g/ha, PREEMERGENCE)
4: Plant response rating, Cheatgrass (cheatgrass; POSTEMERGENCE, Rate 50 g/ha)
5: Plant response rating, Barley (barley [2]; POSTEMERGENCE, Rate 50 g/ha) | Plant response rating, Giant foxtail (giant foxtail [4]; POSTEMERGENCE, Rate 50 g/ha) | Plant response rating, Bedstraw (bedstraw; PREEMERGENCE, Rate 50 g/ha)
8: Plant response rating, Cocklebur (cocklebur; POSTEMERGENCE, Rate 200 g/ha) | Plant response rating, Soybean (soybean [3]; Rate 200 g/ha, POSTEMERGENCE) | Plant response rating, Velvetleaf (velvetleaf; PREEMERGENCE, Rate 50 g/ha)
10: Plant response rating (0 to 100), Soybean (soybean [1]; POSTEMERGENCE, Rate 2 g/ha) | Plant response rating, Lambsquarter (lambsquarters; PREEMERGENCE, Rate 50 g/ha) | Plant response rating, Lambsquarter (lambsquarters; Rate 200 g/ha, POSTEMERGENCE) | Plant response rating, Lambsquarter (lambsquarters; Rate 200 g/ha, PREEMERGENCE) | Plant response rating (0 to 100), Blackgrass (blackgrass; POSTEMERGENCE, Rate 2 g/ha) | Plant response rating, Soybean (soybean [3]; POSTEMERGENCE, Rate 50 g/ha) | Plant response rating, Cheatgrass (cheatgrass; Rate 200 g/ha, PREEMERGENCE) | Plant response rating, Giant foxtail (giant foxtail [4]; Rate 200 g/ha, PREEMERGENCE) | Plant response rating, Velvetleaf (velvetleaf; Rate 200 g/ha, POSTEMERGENCE) | Plant response rating, Velvetleaf (velvetleaf; Rate 200 g/ha, PREEMERGENCE) | Plant response rating, Sorghum (sorghum; PREEMERGENCE) | Plant response rating (0 to 100), Rape (rape; POSTEMERGENCE, Rate 2 g/ha) | Plant response rating (0 to 100), Rape (rape; Rate 31 g/ha, PREEMERGENCE) | Plant response rating (0 to 100), Giant foxtail (giant foxtail [7]; Rate 8 g/ha, PREEMERGENCE) | Plant response rating (0 to 100), Barley Igri (barley [8]; POSTEMERGENCE, Rate 2 g/ha) | Plant response rating Barley Igri (barley [8]; PREEMERGENCE) | Plant response rating, Bedstraw (bedstraw; POSTEMERGENCE, Rate 50 g/ha) | Plant response rating, Bedstraw (bedstraw; POSTEMERGENCE, Rate 200 g/ha)
100: Plant response rating, Morningglory (morningglory [5]; POSTEMERGENCE) | Plant response rating, Rape (rape; POSTEMERGENCE)
60: Plant response rating, Blackgrass (blackgrass; POSTEMERGENCE) | Plant response rating, Sorghum (sorghum; POSTEMERGENCE) | Plant response rating Rice Japonica (rice; flood test species listed under POSTEMERGENCE, 125 g/ha, 0 to 100 scale) | Plant response rating, Rape (rape; PREEMERGENCE)
7: Plant response rating, Barley (barley [2]; POSTEMERGENCE, Rate 200 g/ha) | Plant response rating, Cheatgrass (cheatgrass; POSTEMERGENCE, Rate 200 g/ha) | Plant response rating, Giant foxtail (giant foxtail [4]; Rate 200 g/ha, POSTEMERGENCE) | Plant response rating, Bedstraw (bedstraw; Rate 200 g/ha, PREEMERGENCE)
85: Plant response rating, Giant foxtail (giant foxtail [7]; POSTEMERGENCE)
3: Plant response rating, Barley (barley [2]; Rate 200 g/ha, PREEMERGENCE)
